In brackets after ≈: the same amount, converted by molar mass.
Tests used:
Format in all cases: cell-based
Phytophthora cactorum = test: 96 well plate test (amended agar with spores); details: 96 well plate, 20, 2, 0.2 and 0.02 ppm, 1% PDA, 2 to 3 days (cells marked *), read-out: EC50 Phytophthora spp. (*96 well plate format vs. Phytophthora cactorum)
Procedure: Compounds were screened in 96 well plates with 10 compounds per plate. Each compound was screened using agar amended to 20, 2, 0.2 and 0.02 ppm, with Proline at 50 and 10 ppm and 0.2% DMSO used as controls. Each test concentration and standard was replicated twice on a plate. Compounds were screened against Phytophthora cactorum. The agar used in the test is a 1% PDA. 1000 spores/mL agar were added to the appropriate agar.
A ×10 stock solution in 2% DMSO was produced for each dose i.e. 200, 20, 2 and 0.2 ppm, and 10 μl of this added to the appropriate wells on the plate. An equivalent amount of 2% DMSO and Proline stock at 500 and 100 ppm were added for the controls. To each well 90 μl of the appropriate agar spore suspension was added to give the required final well concentrations. Plates were incubated at room temperature (18° C.) and assessed after 2 to 3 days. The amount of pathogen growth in each well was compared to the DMSO controls and an EC50 concentration was calculated. The results are provided in Table 1 in which G represents an EC50 above 20 ppm, F represents an EC50 of 1-20 ppm and E represents an EC50 less than 1 ppm.

oomycete plant pathogens = test: Fungicidal activity testing, overall summary; details: summary statement on Table 1
Procedure: The activity of compounds of the invention was assessed by testing against certain oomycete plant pathogens and representative data are presented in Table 1.

Pythium ultimum = test: Amended agar assay (PDA), colony growth; parameters: key to % control Pythium ultimum 2 ppm: D: no control detected at this concentration; C: up to 50% control; B: from 50 to 99% control; A: a control of greater than 99%, i.e. no detectable colony growth; details: for inhibition of growth at 2 ppm: Globisporangium ultimum, read-out: % control Pythium ultimum 2 ppm

| Compound | EC50 (Phytophthora cactorum) [µg/mL] | control over the pathogens tested (oomycete plant pathogens) | inhibition of growth at 2 ppm (Pythium ultimum) [%] | % control Pythium ultimum 2 ppm (Pythium ultimum) |
| --- | --- | --- | --- | --- |
| Cn1nnnc1-n1c(SCc2ccc(Br)cn2)nc2ccccc21 [Example 75] | 1 to 20 (≈ 2.49 to 49.7 µM) | good to excellent control | > 99 |  |
| Cn1nnnc1-n1c(Sc2ncccn2)nc2ccccc21 [Example 60, 1-(1-Methyl-1H-tetrazol-5-yl)-2-(pyrimidin-2-ylthio)-1H-benzo[d]imidazole] | > 20 |  | < 50 |  |
| Cn1nnnc1-n1c(SCc2cccc(C#N)n2)nc2ccccc21 [Example 72] | > 20 |  |  | D |
| Cn1nnnc1-n1c(SCc2cccc(NC(=O)COc3ccccc3)n2)nc2ccc(F)cc21 [Example 47] | < 1 | good to excellent control | > 99 |  |
| Cn1nnnc1-n1c(SCc2cccc(NC(=O)C3CC3)n2)nc2cccc(Cl)c21 [Example 81] | > 20 |  |  |  |
| Clc1cncc(Cl)c1-n1c(SCc2ccccn2)nc2ccccc21 [Example 51] | > 20 |  |  | D |
| Cn1nnnc1-n1c(SCc2cc(C(F)(F)F)ccn2)nc2ccccc21 [Example 78] | 1 to 20 (≈ 2.56 to 51.1 µM) | good to excellent control | > 99 |  |
| Cn1nnnc1-n1c(SCc2ncc(Cl)cc2Cl)nc2ccccc21 [Example 77] | > 20 |  | 50 to 99 |  |
| Cn1nnnc1-n1c(SCC(=O)N2CCOCC2)nc2ccccc21 [Example 56] | > 20 |  | < 50 |  |
| Cn1nnnc1-n1c(Sc2ccccn2)nc2ccccc21 [Example 61, 1-(1-Methyl-1H-tetrazol-5-yl)-2-(pyridin-2-ylthio)-1H-benzo[d]imidazole] | > 20 |  |  | D |
| Cn1nnnc1-n1c(SCc2nccc3ccccc23)nc2ccccc21 [Example 68] | > 20 |  | 50 to 99 |  |
| COc1cccnc1CSc1nc2ccccc2n1-c1nnnn1C [Example 71] | > 20 |  | < 50 |  |
| CN(C)C(=O)CSc1nc2ccccc2n1-c1nnnn1C [Example 58] | > 20 |  | < 50 |  |
| Cn1nnnc1-n1c(SCc2ccncn2)nc2ccccc21 [Example 43] | > 20 |  |  | D |
| CCNC(=O)CSc1nc2ccccc2n1-c1nnnn1C [Example 55] | > 20 |  | < 50 |  |
| Cn1nnnc1-n1c(SCC(=O)Nc2ccccc2)nc2ccccc21 [Example 57] | > 20 |  | < 50 |  |
| C#Cc1ccc2nc(SCc3ccccn3)n(-c3nnnn3C)c2c1 [Example 64, 6-Ethynyl-1-(1-methyl-1H-tetrazol-5-yl)-2-((pyridin-2-ylmethyl)thio)-1H-benzo[d]imidazole] | > 20 |  | < 50 |  |
| Cn1nnnc1-n1c(SCc2ccc(C#N)cn2)nc2ccccc21 [Example 74] | > 20 |  | < 50 |  |
| Cn1nnnc1-n1c(SCc2cccc(NC(=O)C(F)(F)Oc3ccccc3)n2)nc2ccc(I)cc21 [Example 44] | > 20 |  |  | D |
| Cn1nnnc1-n1c(SCc2ccccn2)nc2cccc(Cl)c21 [Example 82] | > 20 |  | 50 to 99 |  |
| CCC(=O)Nc1cccc(CSc2nc3ccccc3n2-c2nnnn2C)n1 [Example 36] | > 20 |  | 50 to 99 |  |
| C#Cc1ccc2nc(SCc3cccc(NC(=O)C(F)(F)Oc4ccccc4)n3)n(-c3nnnn3C)c2c1 [Example 65, N-(6-(((6-Ethynyl-1-(1-methyl-1H-tetrazol-5-yl)-1H-benzo[d]imidazol-2-yl)thio)methyl)pyridin-2-yl)-2,2-difluoro-2-phenoxyacetamide] | > 20 |  | 50 to 99 |  |
| Cn1nnnc1-n1c(SCc2cccc(NC(=O)C3CC3)n2)nc2ccccc21 [Example 35] | 1 to 20 (≈ 2.46 to 49.2 µM) |  | 50 to 99 |  |
| COc1cc(F)cc2c1nc(SCc1ccccn1)n2-c1nnnn1C [Example 85] | > 20 |  | > 99 |  |

Reference: US11224224B2, “Thiobenzoimidazole as fungicides” (REDAG CROP PROTECTION LTD, priority 2017, dated 2022)
